According to patent US20020026053A1, “Novel 3-(substituted) -2- indolinones compounds and use thereof as inhibitors of protein kinase activity” (priority 1997, published 2002):
Where “and” joins values, the source holds several entries; their conditions need not be identical. Equal entries are not always repeated.

Tested on: PDGF-R
Assay: PDGF-R Assay (cellular ELISA, U1242 cells)
Assay type: cell-based
Parameters: concentration or dose not given beside the values
Description: The cellular/catalytic assays described herein are performed in an ELISA format. The general procedure is as follows: a compound is introduced to cells expressing the test kinase, either naturally or recombinantly, for a selected period of time after which, if the test kinase is a receptor, a ligand known to activate the receptor is added. The cells are lysed and the lysate is transferred to the wells of an ELISA plate previously coated with a specific antibody recognizing the substrate of the enzymatic phosphorylation reaction. Non-substrate components of the cell lysate are washed away and the amount of phosphorylation on the substrate is detected with an antibody specifically recognizing phosphotyrosine compared with control cells that were not contacted with a test compound.
All cell culture media, glutamine, and fetal bovine serum can be purchased from Gibco Life Technologies (Grand Island, N.Y.) unless otherwise specified. All cells are grown in a humid atmosphere of 90-95% air and 5-10% CO2 at 37° C. All cell lines are routinely subcultured twice a week and are negative for mycoplasma as determined by the Mycotect method (Gibco).
For ELISA assays, cells (U1242, obtained from Joseph Schlessinger, NYU) are grown to 80-90% confluency in growth medium (MEM with 10% FBS, NEAA, 1 mM NaPyr and 2 mM GLN) and seeded in 96-well tissue culture plates in 0.5% serum at 25,000 to 30,000 cells per well. After overnight incubation in 0.5% serum-containing medium, cells are changed to serum-free medium and treated with test compound for 2 hr in a 5% CO2, 37° C. incubator. Cells are then stimulated with ligand for 5-10 minute followed by lysis with HNTG (20 mM Hepes, 150 mM NaCl, 10% glycerol, 5 mM EDTA, 5 mM Na3VO4, 0.2% Triton X-100, and 2 mM NaPyr). Cell lysates (0.5 mg/well in PBS) are transferred to ELISA plates previously coated with receptor-specific antibody and which had been blocked with 5% milk in TBST (50 mM Tris-HCl pH 7.2, 150 mM NaCl and 0.1% Triton X-100) at room temperature for 30 min. Lysates are incubated with shaking for 1 hour at room temperature. The plates are washed with TBST four times and then incubated with polyclonal anti-phosphotyrosine antibody at room temperature for 30 minutes. Excess anti-phosphotyrosine antibody is removed by rinsing the plate with TBST four times. Goat anti-rabbit IgG antibody is added to the ELISA plate for 30 min at room temperature followed by rinsing with TBST four more times. ABTS (100 mM citric acid, 250 mM Na2HPO4 and 0.5 mg/mL 2,2′-azino-bis (3-ethylbenzthiazoline-6-sulfonic acid)) plus H2O2 ([…] 30% H2O2 to 10 ml ABTS) is added to the ELISA plates to start color development. Absorbance at 410 nm with a reference wavelength of 630 nm is recorded about 15 to 30 min after ABTS addition.

Row | SMILES | PDGF Kinase % Inhibition (P.119)
1 | Cc1c(Br)cc(Br)c2c1C(=Cc1ccc(Br)o1)C(=O)N2 [10726/H05] | −38.0%
2 | Cc1cn(C)cc1C=C1C(=O)Nc2c(Br)cc(Br)c(C)c21 [10726/H06] | −20.9%
3 | Cc1c(Br)cc(Br)c2c1C(=Cc1cc(O)c3c(c1O)CCCC3)C(=O)N2 [10726/H07] | −30.4%
4 | Cc1c(Br)cc(Br)c2c1C(=C1C(=O)Nc3ccc(F)cc31)C(=O)N2 [10726/H08] | 15.1%
5 | Cc1c(Br)cc(Br)c2c1C(=C1C(=O)Nc3ccccc31)C(=O)N2 [10726/H09] | 15.1%
6 | CCc1ccc(C=C2C(=O)Nc3c(Br)cc(Br)c(C)c32)s1 [10726/H10] | 6.9%
7 | COc1ccc(C=C2C(=O)Nc3c(Br)cc(Br)c(C)c32)cc1 [10726/H11] | −0.1%
8 | CCN(CC)c1ccc(C=C2C(=O)Nc3c(Br)cc(Br)c(C)c32)cc1 [10727/H02] | −33.6%
9 | CCc1cc(CC)c(C=C2C(=O)Nc3c(Br)cc(Br)c(C)c32)[nH]1 [10727/H03] | −20.5%
10 | Cc1c(Br)cc(Br)c2c1C(=Cc1cc(Cl)cc(Br)c1O)C(=O)N2 [10727/H04] | 13.7%
11 | Cc1c(Br)cc(Br)c2c1C(=Cc1ccccc1Sc1ccc(Cl)cc1)C(=O)N2 [10727/H05] | −28.5%
12 | Cc1c(Br)cc(Br)c2c1C(=Cc1cc3c(cc1Cl)OCO3)C(=O)N2 [10727/H06] | −40.8%
13 | Cc1c(Br)cc(Br)c2c1C(=Cc1coc3ccccc3c1=O)C(=O)N2 [10727/H07] | −37.2%
14 | Cc1c(Br)cc(Br)c2c1C(=Cc1cccc(C#N)c1)C(=O)N2 [10727/H08] | −27.0%
15 | Cc1c(Br)cc(Br)c2c1C(=Cc1ccc(C#N)cc1)C(=O)N2 [10727/H09] | −11.7%
16 | Cc1c(Br)cc(Br)c2c1C(=Cc1cc(O)ccc1O)C(=O)N2 [10727/H10] | 10.1%
17 | COc1cccc(C=C2C(=O)Nc3c(Br)cc(Br)c(C)c32)c1OC [10727/H11] | 2.8%
18 | COc1ccc(OC)c(C=C2C(=O)Nc3c(Br)cc(Br)c(C)c32)c1 [10728/H02] | −9.3%
19 | COc1cccc(OC)c1C=C1C(=O)Nc2c(Br)cc(Br)c(C)c21 [10728/H03] | −10.6%
20 | COc1cc(C=C2C(=O)Nc3c(Br)cc(Br)c(C)c32)cc(OC)c1 [10728/H04] | −5.7%

Row | SMILES | PDGF Kinase % Inhibition (P.119)
21 | COc1cc(N(C)C)ccc1C=C1C(=O)Nc2c(Br)cc(Br)c(C)c21 [10728/H05] | −10.6% and −5.3%
22 | Cc1c(Br)cc(Br)c2c1C(=Cc1ccc3c(c1)Cc1ccccc1-3)C(=O)N2 [10728/H06] | −25.7%
23 | Cc1c(Br)cc(Br)c2c1C(=Cc1cccc(C(F)(F)F)c1F)C(=O)N2 [10728/H07] | −1.7%
24 | Cc1c(Br)cc(Br)c2c1C(=Cc1c(F)cccc1C(F)(F)F)C(=O)N2 [10728/H09] | −6.2%
25 | Cc1c(Br)cc(Br)c2c1C(=Cc1ccccc1OCC(=O)O)C(=O)N2 [10728/H10] | 4.5%
26 | COc1cc(C=C2C(=O)Nc3c(Br)cc(Br)c(C)c32)cc2c1OCO2 [10728/H11] | −16.8%
27 | COc1ccc2ccccc2c1C=C1C(=O)Nc2c(Br)cc(Br)c(C)c21 [10729/H02] | 2.3%
28 | COc1ccc(C=C2C(=O)Nc3c(Br)cc(Br)c(C)c32)c2ccccc12 [10729/H03] | −0.7%
29 | CSc1ccc(C=C2C(=O)Nc3c(Br)cc(Br)c(C)c32)cc1 [10729/H04] | −5.6%
30 | Cc1ccsc1C=C1C(=O)Nc2c(Br)cc(Br)c(C)c21 [10729/H05] | −27.6%
31 | Cc1c(Br)cc(Br)c2c1C(=Cc1cccc(Oc3ccccc3)c1)C(=O)N2 [10729/H06] | −12.1%
32 | Cc1c(Br)cc(Br)c2c1C(=Cc1ccccn1)C(=O)N2 [10729/H07] | −43.1%
33 | Cc1c(Br)cc(Br)c2c1C(=Cc1cccnc1)C(=O)N2 [10729/H08] | −1.5%
34 | Cc1c(Br)cc(Br)c2c1C(=Cc1ccncc1)C(=O)N2 [10729/H09] | 0.1%
35 | Cc1c(Br)cc(Br)c2c1C(=Cc1ccc(N3CCCC3)cc1)C(=O)N2 [10729/H10] | −1.5%
36 | Cc1c(Br)cc(Br)c2c1C(=CC1C=CCCC1)C(=O)N2 (stereo not shown) [10729/H11] | 5.0%
37 | COc1ccc(C=C2C(=O)Nc3c(Br)cc(Br)c(C)c32)c(OC)c1OC [10730/H02] | 1.0%
38 | COc1cc(OC)c(OC)cc1C=C1C(=O)Nc2c(Br)cc(Br)c(C)c21 [10730/H03] | −11.7%
39 | COc1cc(C=C2C(=O)Nc3c(Br)cc(Br)c(C)c32)cc(OC)c1OC [10730/H04] | −1.2%
40 | CC(=O)n1cc(C=C2C(=O)Nc3c(Br)cc(Br)c(C)c32)c2ccccc21 [10730/H05] | 22.1%

Row | SMILES | PDGF Kinase % Inhibition (P.119)
41 | Cc1c(Br)cc(Br)c2c1C(=Cc1ccc(-c3ccccc3Cl)o1)C(=O)N2 [10730/H07] | 0.6%
42 | Cc1c(Br)cc(Br)c2c1C(=Cc1cc3ccccc3nc1Cl)C(=O)N2 [10730/H08] | 6.3%
43 | COC1CC(C=C2C(=O)Nc3c(Br)cc(Br)c(C)c32)C(OC)O1 (stereo not shown) [10730/H10] | 23.0%
44 | Cc1cc(C=C2C(=O)Nc3c(Br)cc(Br)c(C)c32)oc1C [10730/H11] | 9.4%
45 | CCn1c2ccccc2c2cc(C=C3C(=O)Nc4c(Br)cc(Br)c(C)c43)ccc21 [10731/H02] | −18.7%
46 | Cc1cc2occ(C=C3C(=O)Nc4c(Br)cc(Br)c(C)c43)c(=O)c2cc1C [10731/H03] | 1.8%
47 | C=C(C)C1CC=C(C=C2C(=O)Nc3c(Br)cc(Br)c(C)c32)CC1 (stereo not shown) [10731/H04] | −15.8%
48 | Cc1c(Br)cc(Br)c2c1C(=Cc1coc3ccc(C(C)C)cc3c1=O)C(=O)N2 [10731/H05] | −1.6%
49 | Cc1ccc2occ(C=C3C(=O)Nc4c(Br)cc(Br)c(C)c43)c(=O)c2c1 [10731/H06] | −5.4%
50 | Cc1c(Br)cc(Br)c2c1C(=Cc1coc3ccc([N+](=O)[O-])cc3c1=O)C(=O)N2 [10731/H07] | 36.5%
51 | Cc1c(Br)cc(Br)c2c1C(=Cc1c[nH]c(=O)[nH]c1=O)C(=O)N2 [10731/H08] | −10.1%
52 | COc1ccc2[nH]cc(C=C3C(=O)Nc4c(Br)cc(Br)c(C)c43)c2c1 [10731/H09] | −5.4%
53 | Cc1c(Br)cc(Br)c2c1C(=C1C(=O)N(C)c3ccccc31)C(=O)N2 [10731/H10] | 40.3%
54 | Cc1c(Br)cc(Br)c2c1C(=CC(c1cccs1)C(F)(F)F)C(=O)N2 (stereo not shown) [10732/H02] | 6.8%
55 | COc1c(C(C)C)cc(C=C2C(=O)Nc3c(Br)cc(Br)c(C)c32)cc1C(C)C [10732/H03] | −1.8%
56 | Cc1c(Br)cc(Br)c2c1C(=Cc1cc(C(C)C)c(Oc3ccccc3)c(C(C)C)c1)C(=O)N2 [10732/H04] | 14.4%
57 | COc1ccc(C=C2C(=O)Nc3c(Br)cc(Br)c(C)c32)cc1C(C)(C)C [10732/H05] | −25.6%
58 | Cc1c(Br)cc(Br)c2c1C(=Cc1ccc(OCc3ccccc3)c(C(C)(C)C)c1)C(=O)N2 [10732/H06] | −18.0%
